From ChEMBL document CHEMBL1155570, “5'-Methoxyhydnocarpin-D and pheophorbide A: Berberis species components that potentiate berberine growth inhibition of resistant Staphylococcus aureus” (J Nat Prod, 2000)
Active and inactive are the calls of the source. The rule behind the calls is not given here.

System: Staphylococcus aureus
Assay: Antimicrobial activity against Staphylococcus aureus 4222 with norA KLE 820(3) mutation
Assay type: functional, organism-based

Compound	Activity
COc1ccc(CC2c3cc(OC)c(OC)cc3CCN2C)cc1OC (stereo not given)	inactive
COc1cc2c(cc1OC)[C@@H]1Cc3ccc(OC)c(OC)c3CN1CC2	inactive
COc1ccc2c(c1OC)CN(C)CCc1cc3c(cc1C(=O)C2)OCO3	inactive
CN1CCc2cc3c(cc2C(=O)Cc2cc4c(cc2C1)OCO4)OCO3	inactive
COc1cc2c(cc1O)[C@@H]1Cc3cc(O)c(OC)cc3C(C2)N1C	inactive
COc1ccc2c(c1O)-c1c(OC)c(OC)cc3c1[C@H](C2)N(C)CC3	inactive
COc1cc2c(cc1OC)C1Cc3cc(OC)c(OC)cc3[C@H](C2)N1C	inactive
COc1cc2c(cc1OC)-c1c(OC)c(OC)cc3c1[C@H](C2)N(C)CC3	inactive
COc1ccc2c(c1OC)-c1c(OC)c(OC)cc3c1[C@H](C2)[N+](C)(C)CC3	inactive

System: Staphylococcus aureus
Assay: Antimicrobial activity against Staphylococcus aureus 4222 with norA KLE mutation at 120 to 140 ug/ml
Assay type: functional, organism-based

Compound	Activity
COc1ccc2cc3[n+](cc2c1OC)CCc1cc2c(cc1-3)OCO2	Active
